The record followed here is patent US20030166007A1, “Chemical proteomics” (MDS Proteomics Inc., priority 2002, published 2003).

The experiment deals with T1, Glutathione synthase (Homo sapiens, UniProt P48637).
T1 construct: endogenous in cells; host or cells: HEK 293
T1 sequence (P48637 1-474): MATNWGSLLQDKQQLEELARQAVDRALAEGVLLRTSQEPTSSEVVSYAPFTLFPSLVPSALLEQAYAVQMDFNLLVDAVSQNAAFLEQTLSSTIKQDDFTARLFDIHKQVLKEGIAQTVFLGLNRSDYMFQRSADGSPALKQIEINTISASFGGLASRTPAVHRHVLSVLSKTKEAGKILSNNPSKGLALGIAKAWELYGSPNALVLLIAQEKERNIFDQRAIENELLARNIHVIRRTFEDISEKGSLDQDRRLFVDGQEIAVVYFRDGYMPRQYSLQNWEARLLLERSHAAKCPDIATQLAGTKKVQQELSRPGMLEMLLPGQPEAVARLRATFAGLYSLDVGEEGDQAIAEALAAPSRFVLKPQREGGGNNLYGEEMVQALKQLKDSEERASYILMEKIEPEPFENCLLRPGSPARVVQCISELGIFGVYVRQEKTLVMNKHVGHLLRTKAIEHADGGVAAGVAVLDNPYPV
Description: MTX-agarose affinity chromatography of cell lysate, MS identification. The class given is binding. The note with it: HEK 293 lysate.
Description: After incubation for 30 minutes at 4° C. with shaking, the lysates were clarified by centrifugation (27,000×g). In some experiments, cells were lysed using 20 strokes of a Dounce® homogenizer in the absence of detergents. […] While optimizing the protocol, however, several experimental variations were tested on cell lysates including concentration by ammonium sulfate precipitation, or removal of nucleic acid with Streptomycin sulfate. In such cases, the protein sample was desalted using a PD 10 protein-desalting column (Pharmacia), which had been pre-equilibrated in the same buffer (10 mM potassium phosphate pH 7.5)
Affinity Chromatography: The desalted lysate was loaded onto a column of pre-equilibrated MTX-agarose (Sigma, 50 μL bed volume) or sepharose 4B agarose as a negative control. The lysates were allowed to slowly flow through the matrix under gravity flow. […] Retentates from the microcons were then loaded onto SDS-PAGE 4%-15% gradient mini gels (Bio-Rad). […]
The peptides were then separated by reverse phase chromatography on C18 resin and directly injected into a mass spectrometer using an automated sample-loading device from 96 well plates. […] The spectra generated were analyzed on a custom-built multi-node server platform (RADARS, ProteoMetrics), which uses two database searching programs, Sonar (ProteoMetrics) and Mascot (Matrix Sciences). […]

Take `CN(Cc1cnc2nc(N)nc(N)c2n1)c1ccc(C(=O)N[C@@H](CCC(=O)O)C(=O)O)cc1` [Methotrexate]: the “Association with the Methotrexate matrix” value was “consistently found”.
